In patent US12447153B2, “HER2 mutation inhibitors” (Array BioPharma Inc., priority 2021, dated 2025):
pIC50: −log10 of the molar value.

Assays:
EGFR = EGFR (Homo sapiens (Human), UniProt P00533); assay: ErbB Enzyme Assay (HTRF KinEASE-TK), Assay 3; type: biochemical
ErbB2 WT = ErbB2 WT (Homo sapiens (Human), UniProt P04626); assay: ErbB Enzyme Assay (HTRF KinEASE-TK), Assay 2; type: biochemical
[1] = target: ErbB2 with Exon 20 YVMA insertion (HER2-YVMA) (Homo sapiens (Human), UniProt P04626, INS775YVMA); assay: Cellular Phosphorylation Assay, Assay 4 (constitutive ErbB2 phosphorylation, NIH 3T3 cells); type: cell-based
ErbB2 with Exon 20 YVMA insertion (HER2-YVMA), sequence (P04626 other isoform, or with tags, fused parts or gaps ins YVMA behind 775): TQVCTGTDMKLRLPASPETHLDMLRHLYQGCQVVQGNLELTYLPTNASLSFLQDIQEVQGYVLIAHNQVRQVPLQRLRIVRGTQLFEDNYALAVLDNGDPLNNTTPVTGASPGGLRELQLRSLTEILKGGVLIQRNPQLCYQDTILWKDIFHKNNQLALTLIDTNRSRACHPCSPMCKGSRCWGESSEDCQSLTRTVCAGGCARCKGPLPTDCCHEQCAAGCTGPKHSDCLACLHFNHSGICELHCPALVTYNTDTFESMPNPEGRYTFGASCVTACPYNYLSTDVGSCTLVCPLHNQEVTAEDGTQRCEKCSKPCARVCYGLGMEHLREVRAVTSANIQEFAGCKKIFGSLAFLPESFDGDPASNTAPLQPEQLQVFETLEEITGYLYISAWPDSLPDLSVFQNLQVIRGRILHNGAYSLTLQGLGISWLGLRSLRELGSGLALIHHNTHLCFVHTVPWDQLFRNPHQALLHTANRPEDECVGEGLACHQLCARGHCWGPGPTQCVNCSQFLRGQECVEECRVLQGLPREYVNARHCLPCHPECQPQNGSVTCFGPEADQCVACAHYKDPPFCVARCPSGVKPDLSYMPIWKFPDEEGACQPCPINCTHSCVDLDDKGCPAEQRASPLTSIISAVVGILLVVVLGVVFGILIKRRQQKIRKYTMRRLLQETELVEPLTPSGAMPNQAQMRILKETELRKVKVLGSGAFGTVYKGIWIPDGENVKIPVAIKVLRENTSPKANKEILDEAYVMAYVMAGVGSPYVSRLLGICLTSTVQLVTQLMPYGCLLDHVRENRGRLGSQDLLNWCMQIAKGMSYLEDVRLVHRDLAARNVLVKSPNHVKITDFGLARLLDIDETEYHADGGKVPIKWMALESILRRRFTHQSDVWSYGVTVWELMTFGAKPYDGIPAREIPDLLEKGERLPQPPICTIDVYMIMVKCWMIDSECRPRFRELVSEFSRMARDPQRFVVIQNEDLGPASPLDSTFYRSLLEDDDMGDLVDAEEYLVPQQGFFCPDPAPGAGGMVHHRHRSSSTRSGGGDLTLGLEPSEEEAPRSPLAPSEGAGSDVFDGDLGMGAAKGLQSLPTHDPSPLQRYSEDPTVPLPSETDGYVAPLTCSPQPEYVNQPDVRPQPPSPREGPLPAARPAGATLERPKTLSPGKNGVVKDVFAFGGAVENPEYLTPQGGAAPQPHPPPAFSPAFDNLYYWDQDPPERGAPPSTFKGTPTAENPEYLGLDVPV

BCRP = BCRP (Homo sapiens (Human), UniProt Q9UNQ0); assay: BCRP MDCKII efflux assay (Assay 7); type: in vitro ADME; settings: dog; efflux ratio Papp(B-A)/Papp(A-B), BCRP MDCKII cells; read-out: Assay 7 Pe Ratio
Description: Assay conditions included with and without the BCRP-specific inhibitor, KO143, at a concentration of 0.3 μM to ascertain the contribution of BCRP to the efflux value of the test compound.
Final organic concentration in the assay was 1%.

EGFR wild type (EGFR WT) = EGFR wild type (EGFR WT) (Homo sapiens (Human), UniProt P00533); assay: Cellular Phosphorylation Assay, Assay 5 (EGF-stimulated EGFR phosphorylation, NIH 3T3 cells); type: cell-based
EGFR wild type (EGFR WT), sequence (P00533 25-1210): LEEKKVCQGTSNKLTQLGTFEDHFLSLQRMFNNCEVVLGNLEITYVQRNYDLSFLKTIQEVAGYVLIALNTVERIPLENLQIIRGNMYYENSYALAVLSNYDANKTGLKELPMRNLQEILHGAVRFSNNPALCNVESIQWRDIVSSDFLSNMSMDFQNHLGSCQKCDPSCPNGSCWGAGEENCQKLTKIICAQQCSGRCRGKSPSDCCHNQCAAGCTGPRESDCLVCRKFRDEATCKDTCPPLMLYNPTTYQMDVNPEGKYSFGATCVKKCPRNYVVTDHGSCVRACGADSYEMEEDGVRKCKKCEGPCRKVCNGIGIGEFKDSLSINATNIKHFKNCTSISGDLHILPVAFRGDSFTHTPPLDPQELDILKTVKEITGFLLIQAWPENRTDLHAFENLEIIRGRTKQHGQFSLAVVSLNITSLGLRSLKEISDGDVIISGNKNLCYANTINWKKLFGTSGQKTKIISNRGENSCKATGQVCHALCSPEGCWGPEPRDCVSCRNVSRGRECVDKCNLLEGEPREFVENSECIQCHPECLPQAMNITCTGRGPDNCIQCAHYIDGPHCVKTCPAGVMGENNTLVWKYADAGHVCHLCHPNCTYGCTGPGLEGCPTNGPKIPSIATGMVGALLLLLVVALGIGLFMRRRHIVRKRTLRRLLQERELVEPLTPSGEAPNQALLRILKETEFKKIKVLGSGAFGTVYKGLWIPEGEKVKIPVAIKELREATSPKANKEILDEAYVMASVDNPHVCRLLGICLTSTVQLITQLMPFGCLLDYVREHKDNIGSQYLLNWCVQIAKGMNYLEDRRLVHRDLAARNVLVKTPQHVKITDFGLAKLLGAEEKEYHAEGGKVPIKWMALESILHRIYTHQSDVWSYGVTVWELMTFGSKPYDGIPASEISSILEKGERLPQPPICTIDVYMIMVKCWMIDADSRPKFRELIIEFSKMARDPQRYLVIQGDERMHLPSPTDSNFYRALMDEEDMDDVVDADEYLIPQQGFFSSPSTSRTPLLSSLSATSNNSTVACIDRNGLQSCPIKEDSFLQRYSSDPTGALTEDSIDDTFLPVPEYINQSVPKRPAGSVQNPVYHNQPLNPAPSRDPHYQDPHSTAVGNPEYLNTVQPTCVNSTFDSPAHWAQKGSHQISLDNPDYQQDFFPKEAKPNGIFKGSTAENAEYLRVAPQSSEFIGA

[2] = cellular ErbB2 YVMA phosphorylation
[3] = cellular EGFR WT phosphorylation, EGF-stimulated
[4] = EGF-stimulated EGFR WT phosphorylation

EGFR, sequence (P00533 25-1210): as above
ErbB2 WT, sequence (P04626 23-1255): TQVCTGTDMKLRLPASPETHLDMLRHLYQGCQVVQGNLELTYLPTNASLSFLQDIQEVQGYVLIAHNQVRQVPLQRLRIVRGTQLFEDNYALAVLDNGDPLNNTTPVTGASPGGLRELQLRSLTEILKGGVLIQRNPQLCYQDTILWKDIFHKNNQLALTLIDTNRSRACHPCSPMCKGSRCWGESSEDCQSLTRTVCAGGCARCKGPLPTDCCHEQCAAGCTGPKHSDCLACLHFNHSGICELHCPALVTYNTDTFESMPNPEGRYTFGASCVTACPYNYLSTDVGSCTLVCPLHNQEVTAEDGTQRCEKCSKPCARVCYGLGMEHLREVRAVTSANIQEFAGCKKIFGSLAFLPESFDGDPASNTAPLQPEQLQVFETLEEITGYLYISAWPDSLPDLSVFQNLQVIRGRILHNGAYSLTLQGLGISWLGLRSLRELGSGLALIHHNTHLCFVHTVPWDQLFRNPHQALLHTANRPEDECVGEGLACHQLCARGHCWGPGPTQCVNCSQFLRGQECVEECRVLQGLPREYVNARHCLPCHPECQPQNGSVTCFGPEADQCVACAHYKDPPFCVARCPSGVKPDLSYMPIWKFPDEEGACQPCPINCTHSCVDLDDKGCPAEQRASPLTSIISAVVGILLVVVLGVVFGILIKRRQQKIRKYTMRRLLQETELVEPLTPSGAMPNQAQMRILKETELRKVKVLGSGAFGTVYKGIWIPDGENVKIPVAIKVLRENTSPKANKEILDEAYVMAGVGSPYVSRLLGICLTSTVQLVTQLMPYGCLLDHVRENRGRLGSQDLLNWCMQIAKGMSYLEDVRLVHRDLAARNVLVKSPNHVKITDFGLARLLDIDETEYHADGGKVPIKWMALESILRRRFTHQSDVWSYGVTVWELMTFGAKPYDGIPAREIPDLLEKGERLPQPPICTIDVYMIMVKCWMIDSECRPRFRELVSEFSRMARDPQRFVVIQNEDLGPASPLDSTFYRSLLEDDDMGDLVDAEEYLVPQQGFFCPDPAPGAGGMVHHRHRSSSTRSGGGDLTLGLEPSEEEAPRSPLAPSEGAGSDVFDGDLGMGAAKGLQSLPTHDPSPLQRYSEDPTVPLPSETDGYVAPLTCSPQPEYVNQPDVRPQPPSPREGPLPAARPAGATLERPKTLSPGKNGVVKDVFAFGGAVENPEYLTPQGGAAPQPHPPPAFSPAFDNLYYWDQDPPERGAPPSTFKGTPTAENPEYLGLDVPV

Row | pIC50 (EGFR; EGFR enzyme assay) | pIC50 (ErbB2 WT; ErbB2 WT enzyme assay) | pIC50 [1, 2] | efflux ratio at 2 h, 1 µM (BCRP) | pIC50 (EGFR wild type (EGFR WT); [3]) | pIC50 (EGFR; EGFR enzyme) | pIC50 (ErbB2 WT; ErbB2 WT enzyme) | pIC50 ([1]; ErbB2 YVMA phosphorylation) | pIC50 (EGFR wild type (EGFR WT); [4]) | Structure (SMILES)
1 | 5.68 | 7.30 | 7.68 | 8.7 | 5.72 |  |  |  |  | C=CC(=O)N1CC(c2ccc3ncnc(Nc4ccc(Oc5ccn6ncnc6c5)c(C)c4F)c3n2)C1 [Example 280]
2 |  |  |  | 23.5 |  | ≤ 5.00 | 6.59 | 7.52 | ≤ 5.30 | C=CC(=O)N1CCCN(c2ccc3ncnc(Nc4ccc(Oc5cnc6c(c5)ncn6C)c(C)c4)c3n2)CC1 [Example 114, 1-(4-(4-((3-methyl-4-((3-methyl-3H-imidazo[4,5-b]pyridin-6-yl)oxy)phenyl)amino)pyrido[3,2-d]pyrimidin-6-yl)-1,4-diazepan-1-yl)prop-2-en-1-one]
3 | 6.56 | 7.95 | 8.02 | 5.8 | 6.19 |  |  |  |  | C=CC(=O)N1CCN(c2ccc3ncnc(Nc4ccc(Oc5cnc6c(c5)ncn6C)c(C)c4F)c3n2)C[C@@H]1C(F)F (racemic) [Example 300]
4 | ≤ 5.00 | 7.44 | 7.62 | 6.7 | ≤ 5.30 |  |  |  |  | C=CC(=O)N1C[C@@H]2CN(c3ccc4ncnc(Nc5ccc(Oc6ccc7c(c6)ncn7C)c(C)c5F)c4n3)C[C@@H]21 [Example 323]
5 |  | 6.81 | 7.51 | 6.8 | 5.67 |  |  |  |  | CC#CC(=O)N1C[C@@H]2CC[C@H]1CN2c1ccc2ncnc(Nc3ccc(Oc4ccn5ncnc5c4)c(C)c3F)c2n1 [Example 333]
6 |  |  |  |  |  | ≤ 5.00 | 5.84 | 5.70 | ≤ 5.30 | CC#CC(=O)N1CCC12CN(c1ccc3ncnc(Nc4cc(C)c(Oc5ccn6ncnc6c5)cc4F)c3n1)C2 [Example 188, 1-(6-(4-((4-([1,2,4]triazolo[1,5-a]pyridin-7-yloxy)-2-fluoro-5-methylphenyl)amino)pyrido[3,2-d]pyrimidin-6-yl)-1,6-diazaspiro[3.3]heptan-1-yl)but-2-yn-1-one]
7 |  |  |  |  |  | 6.55 | 7.79 | 7.46 | 6.01 | C=CC(=O)N1CC(Sc2ccc3ncnc(Nc4ccc(Oc5ccc6c(c5)ncn6C)c(C)c4F)c3n2)C1 [Example 61, 1-(3-((4-((2-fluoro-3-methyl-4-((1-methyl-1H-benzo[d]imidazol-5-yl)oxy)phenyl)amino)pyrido[3,2-d]pyrimidin-6-yl)thio)azetidin-1-yl)prop-2-en-1-one]
8 | 5.57 | 7.53 | 7.45 |  | ≤ 5.30 |  |  |  |  | C=CC(=O)N(C)[C@@H]1CCN(c2ccc3ncnc(Nc4ccc(Oc5ccn6ncnc6c5)c(C)c4F)c3n2)C1 [Example 349]
9 | 7.31 | 8.33 | 8.49 |  | 7.10 |  |  |  |  | C=CC(=O)N1C[C@@H]2CC[C@H]1CN2c1ccc2ncnc(Nc3ccc(Oc4ccn5ncnc5c4)c(C)c3F)c2n1 [Example 331]
10 | ≤ 5.00 | 6.72 | 7.37 |  | ≤ 5.30 |  |  |  |  | C=CC(=O)N1CCN(c2ccc3ncnc(Nc4cc(Cl)c(Oc5cnc6c(c5)ncn6C)cc4F)c3n2)C[C@@H]1C1CC1 [Example 440]
11 | 6.11 | 7.42 | 8.09 |  | 6.42 |  |  |  |  | C=CC(=O)N1CCN(c2ccc3ncnc(Nc4cc(C)c(Oc5ccn6ncnc6c5)cc4F)c3n2)C[C@H]1COC [Example 347]
12 |  |  |  |  |  | 7.13 | 8.21 | 8.36 | 7.10 | CC#CC(=O)N1CCN(c2ccc3ncnc(Nc4ccc(Oc5ccn6ncnc6c5)c(Cl)c4F)c3n2)C[C@@H]1C(F)(F)F [Example 183, (R)-1-(4-(4-((4-([1,2,4]triazolo[1,5-a]pyridin-7-yloxy)-3-chloro-2-fluorophenyl)amino)pyrido[3,2-d]pyrimidin-6-yl)-2-(trifluoromethyl)piperazin-1-yl)but-2-yn-1-one]
13 | ≤ 5.00 | 7.10 | 7.79 |  | 6.25 |  |  |  |  | C=CC(=O)N1CCN(c2ccc3ncnc(Nc4ccc(Oc5ccn6ncnc6c5)c(Cl)c4F)c3n2)C[C@H]1C(C)(C)C [Example 311]
14 |  |  |  |  |  | 5.81 | 7.78 | 7.33 | ≤ 5.30 | C=CC(=O)N1CCCN(c2nc3c(Nc4ccc(Oc5ccn6ncnc6c5)c(C)c4F)ncnc3cc2OC)CC1 [Example 150, 1-(4-(4-((4-([1,2,4]triazolo[1,5-a]pyridin-7-yloxy)-2-fluoro-3-methylphenyl)amino)-7-methoxypyrido[3,2-d]pyrimidin-6-yl)-1,4-diazepan-1-yl)prop-2-en-1-one]
15 |  |  |  |  |  | 6.33 | 8.12 | 8.06 | 6.75 | C=CC(=O)N1CCN(c2ccc3ncnc(Nc4ccc(Oc5ccn6ncnc6c5)c(Cl)c4F)c3n2)CC1(C)C [Example 87, 1-(4-(4-((4-([1,2,4]triazolo[1,5-a]pyridin-7-yloxy)-3-chloro-2-fluorophenyl)amino)pyrido[3,2-d]pyrimidin-6-yl)-2,2-dimethylpiperazin-1-yl)prop-2-en-1-one]

Continued, compound first:

Row | Structure (SMILES) | pIC50 (EGFR; EGFR enzyme assay) | pIC50 (ErbB2 WT; ErbB2 WT enzyme assay) | pIC50 [1, 2] | efflux ratio at 2 h, 1 µM (BCRP) | pIC50 (EGFR wild type (EGFR WT); [3]) | pIC50 (EGFR; EGFR enzyme) | pIC50 (ErbB2 WT; ErbB2 WT enzyme) | pIC50 ([1]; ErbB2 YVMA phosphorylation) | pIC50 (EGFR wild type (EGFR WT); [4])
16 | C=CC(=O)N1C[C@H](c2ccc3ncnc(Nc4cc(C)c(Oc5ccc6c(c5)ncn6C)cc4F)c3n2)CCC1(C)C (racemic) [Example 141, rac-(R)-1-(5-(4-((2-fluoro-5-methyl-4-((1-methyl-1H-benzo[d]imidazol-5-yl)oxy)phenyl)amino)pyrido[3,2-d]pyrimidin-6-yl)-2,2-dimethylpiperidin-1-yl)prop-2-en-1-one] |  |  |  | 2.4 |  | ≤ 5.00 | 6.75 | 7.75 | ≤ 5.30
17 | C=CC(=O)N1CCCC[C@@H](c2ccc3ncnc(Nc4cc(C)c(Oc5ccc6c(c5)ncn6C)cc4F)c3n2)C1 (racemic) [Example 137, rac-(R)-1-(3-(4-((2-fluoro-5-methyl-4-((1-methyl-1H-benzo[d]imidazol-5-yl)oxy)phenyl)amino)pyrido[3,2-d]pyrimidin-6-yl)azepan-1-yl)prop-2-en-1-one] |  |  |  | 1.9 |  | 5.58 | 7.55 | 7.77 | 5.36
18 | C=CC(=O)N1C[C@H]2C[C@@H]1CN(c1ccc3ncnc(Nc4cc(C)c(Oc5cnc6c(c5)ncn6C)cc4F)c3n1)C2 [Example 353] | ≤ 5.00 | 6.32 | 7.31 | 17.2 | ≤ 5.30 |  |  |  | 
19 | C=CC(=O)N1[C@@H]2CC[C@H]1C[C@@H](c1ccc3ncnc(Nc4ccc(Oc5ccn6ncnc6c5)c(C)c4)c3n1)C2 [Example 215, 1-((1R,3r,5S)-3-(4-((4-([1,2,4]triazolo[1,5-a]pyridin-7-yloxy)-3-methylphenyl)amino)pyrido[3,2-d]pyrimidin-6-yl)-8-azabicyclo[3.2.1]octan-8-yl)prop-2-en-1-one] |  |  |  |  |  | 5.48 | 7.53 | 7.53 | ≤ 5.30
20 | C=C(F)C(=O)N1[C@@H]2CC[C@H]1C[C@@H](c1ccc3ncnc(Nc4cc(C)c(Oc5ccn6ncnc6c5)cc4F)c3n1)C2 [Example 207, 1-((1R,3r,5S)-3-(4-((4-([1,2,4]triazolo[1,5-a]pyridin-7-yloxy)-2-fluoro-5-methylphenyl)amino)pyrido[3,2-d]pyrimidin-6-yl)-8-azabicyclo[3.2.1]octan-8-yl)-2-fluoroprop-2-en-1-one] |  |  |  |  |  | ≤ 5.00 | 6.82 | 6.16 | ≤ 5.30
21 | C=CC(=O)N1CC2CCC(C1)N2c1ccc2ncnc(Nc3ccc(Oc4ccn5ncnc5c4)c(Cl)c3F)c2n1 [Example 445] | 7.47 | 8.33 | 8.24 |  | 7.22 |  |  |  | 
22 | C=CC(=O)N1CC[C@H](c2ccc3ncnc(Nc4ccc(Oc5cnc6c(c5)ncn6C)c(Cl)c4)c3n2)CC1(C)C (racemic) [Example 272] | ≤ 5.00 | 6.91 | 7.11 |  | ≤ 5.30 |  |  |  | 
23 | C=CC(=O)N1CC2CC(C1)N2c1ccc2ncnc(Nc3cc(C)c(Oc4ccn5ncnc5c4)cc3F)c2n1 [Example 336] | 5.24 | 6.69 | 7.30 |  | 5.31 |  |  |  | 
24 | C=CC(=O)N1[C@@H]2CC[C@H]1[C@H](c1ccc3ncnc(Nc4ccc(Oc5ccn6ncnc6c5)c(C)c4)c3n1)C2 (single isomer, unassigned) [Example 233] |  |  |  |  |  | 5.31 | 6.92 | 7.08 | ≤ 5.30
25 | C=CC(=O)N1CCC(c2ccc3ncnc(Nc4ccc(Oc5ccc6c(c5)ncn6C)c(C)c4)c3n2)C(C)C1 (stereo not drawn) [Example 125, 1-((3RS,4R*)3-methyl-4-(4-((3-methyl-4-((1-methyl-1H-benzo[d]imidazol-5-yl)oxy)phenyl)amino)pyrido[3,2-d]pyrimidin-6-yl)piperidin-1-yl)prop-2-en-1-one] |  |  |  |  |  | 5.13 | 7.32 | 7.40 | ≤ 5.30
26 | C=CC(=O)N1CC[C@@H]2[C@H](c3ccc4ncnc(Nc5cc(C)c(Oc6ccc7c(c6)ncn7C)cc5F)c4n3)CC[C@@H]21 (racemic) [Example 134, rac-1-((3aR,4R,6aS)-4-(4-((2-fluoro-5-methyl-4-((1-methyl-1H-benzo[d]imidazol-5-yl)oxy)phenyl)amino)pyrido[3,2-d]pyrimidin-6-yl)hexahydrocyclopenta[b]pyrrol-1(2H)-yl)prop-2-en-1-one] |  |  |  |  |  | ≤ 5.00 | 7.06 | 6.65 | ≤ 5.30
